# Test system: calcium channel (e.g., L-type, N-type, etc.) current
# Experiment: HEK assay (whole-cell patch clamp of calcium channel currents in transiently transfected HEK-293T/17 cells)
# Type: cell-based
# Details: whole-cell voltage clamp, holding potential −100 mV
# Experimental: HEK-293T/17 cells are transiently transfected in a similar manner as described in FuGENE 6 Package Insert Version 7, April 2002, Roche Applied Science, Indianapolis, Ind. The cells are plated at 2.5×10^5 cells in 2 mL in a 6-well plate in incubator for one night and achieve a 30-40% confluence. In a small sterile tube, add sufficient serum-free medium as diluent for FuGENE Transfection Reagent (Roche Applied Science, Indianapolis, Ind.), to a total volume of 100 μL. Add 3 μL of FuGENE 6 Reagent directly into this medium. The mixture is tapped gently to mix. 2 μg of DNA solution (0.8-2.0 μg/μL) is added to the prediluted FuGENE 6 Reagent from above. The DNA/Fugene 6 mixture is gently pipetted to mix the contents and incubated for about 15 minutes at room temperature. The complex mixture is then added to the HEK-293T/17 cells, distributing it around the well, and swirled to ensure even dispersal. The cells are returned to the incubator for 24 hrs. The transfected cells are then replated at density 2.5×10^5 in a 35 mm dish with 5 glass coverslips and grow in low serum (1%) media for 24 hrs. Coverslips with isolated cells are then transferred into chamber and calcium channel (e.g., L-type, N-type, etc.) current or other currents for counter screening are recorded from the transiently transfected HEK-293T/17 cells.
# The whole-cell voltage clamp configuration of the patch clamp technique is employed to evaluate voltage-dependent calcium currents essentially as described by Thompson and Wong (1991) J. Physiol., 439: 671-689. To record calcium channel (e.g., L-type, N-type, etc.) currents for evaluation of inhibitory potency of compounds (steady-state concentration-response analysis), five pulses of 20-30 ms voltage steps to about +10 mV (the peak of the current voltage relationship) are delivered at five Hz every 30 second from a holding potential at −100 mV. Compound evaluations were carried out essentially as described by Sah D W and Bean B P (1994) Mol Pharmacol. 45(1):84-92. Table 3 contains IC50's for representative compounds.
row,IC50,SMILES
1,378 nM,COc1ccc(C(=O)CSc2nnc(CNc3ccc(F)cc3)n2-c2ccc(C)cc2)cc1 [Compound 5]
2,695 nM,COc1ccccc1-c1nnc(SCC(=O)Nc2ccccn2)n1-c1ccc(C)cc1 [Compound 27]
3,572 nM,COc1ccc(C(=O)CSc2nnc(-c3ccccc3OC)n2-c2ccc(C)cc2)cc1 [Compound 28]
